Here are results for two compounds from patent US20100130598A1, “METHODS FOR INDUCING PROGRAMMED CELL DEATH” (Novogen Research Pty Ltd., priority 2008, published 2010).

What all share (type): cell-based, human
Assay [1] concerns MIAPaCa-2 cells. Description: Cell cycle analysis by FACS (PI), MIAPaCa-2. To be noted: MIAPaCa-2, 10 μM. Here is the method: (§1) Cells. Human pancreatic cell lines HPAC, MIAPaCa-2 and PANC-1 were obtained from the ATCC. (Manassas, Va.). The cells were maintained in DMEM media with Gln and high glucose (Mediatech, Manassas, Va.) with 10% fetal bovine serum (FBS, HyClone, Logan, Utah) and pencillin/streptomycin.
(§2) FACS Analysis. Apoptosis was measured by FACS analysis using Annexin-V-FITC and propidium iodide (PI) (Biovision, Mountain View, Calif.) as probes (Ahn et al., 2003). Mitochondrial membrane potential was measured by FACS analysis using JC-1 (Biovision) as a probe (Ahn et al., 2003). Cell cycle was analyzed on ethanol-fixed, RNaseA-treated cells staining with PI. In each spectrum, 10,000 gated events were recorded and analyzed with a FACSCalibur (BD Biosciences. San Jose, Calif.). All experiments were done in triplicate, error bars represent one standard deviation. Caspase inhibitor I (zVAD-fmk) was obtained from Calbiochem.

Assay [2] relates to HPAC cells. Description: Cell cycle analysis by FACS (PI), HPAC. To be noted: 10 μM, accompanied with an arrest in G0/G1, transient. Here is the method: as §1, §2
(A flow cytometer gives signals particle by particle.)

The subject of assay [3] is PANC-1 cells. Description: Cell cycle analysis by FACS (PI), PANC-1. Particulars: PANC-1, 10 μM. How it is done:
as §1, §2

Assay [4] deals with MIAPaCa-2 cells. Description: Apoptosis/necrosis by FACS (Annexin-V-FITC/PI), MIAPaCa-2. How it is done: as §1, §2
The test system of assay [5] is PANC-1 cells. Description: Mitochondrial membrane potential by FACS (JC-1), PANC-1. To be noted: PANC-1, dose-dependent, 48 hrs of treatment. How it is done: as §1, §2
The subject of assay [6] is EOC cells. Nature of the assay: Flow cytometry with Hoechst and Propidium iodide staining (DNA fragmentation). To be noted: Compound 1 10 g/ml (as printed, FIG. 1B legend), 24 h. The source says: Cell lines and culture conditions. Established human EOC cell lines, A2780 and A2780/CP70 (gifts from Dr. T C Hamilton) (Behrens et al, 1997) were propagated in RPMI plus 10% fetal bovine serum (Gemini Bio-Products, Woodland, Calif.). Primary EOC cell lines were isolated from malignant ovarian ascites or explanted from ovarian tumors and cultured as previously described (Alvero et al, 2006). Purity of the EOC cells was 100% as determined by immuno-staining for cytokeratin 7 antigen. All cell lines were grown at 37° C. in a 5% CO2 atmosphere.
Flow cytometry with Hoechst and Propidium iodide staining. After treatment, cells were trypsinized, washed twice with PBS, and resuspended at 1×10^6 cells/ml. Cells were then stained with 5 μg/ml Hoechst 33342 (Invitrogen-Molecular Probes, Carlsbad, Calif.) and 1 μg/ml Propidium iodide (Sigma Aldrich) and incubated for 15 mins in the dark. Afterwards, data was acquired using BD LSR II System and analyzed using FloJo FACS analysis software (Tree Star, Inc., Ashland, Oreg.).

In assay [7] the test system is EOC cells. Nature of the assay: Mitochondrial depolarization using JC-1 (flow cytometry). Particulars: 10 pg/ml (as printed, FIG. 5 legend). The source says:
Assay of mitochondrial depolarization using JC-1. After treatment, cells were trypsinized and stained with JC-1 dye using the Mitocapture™ mitochondrial apoptosis detection kit (BioVision Research Products, Mountain View, Calif.) according to manufacturer's instruction. Data was acquired using BD LSR II System and analyzed using BD FACSDiva Software™.

Assay [8] concerns ribosomal p70 S6 kinase (p-S6k). Description: Western blot of EOC whole cell lysates for p-S6k. To be noted: EOC cells, 10 g/ml (as printed, FIG. 3 legend), 15 mins post-treatment. The source says:
Protein preparation and cellular fractionation. After drug treatment, protein was extracted and measured as previously described (Alvero et al, 2006). For separation of the cytoplasmic and mitochondrial fractions, cell pellets were processed using the ApoAlert™ Cell Fractionation Kit (BD Biosciences, San Jose, Calif.) according to the manufacturer's instructions. For separation of the cytoplasmic and nuclear fractions, pellets were processed using NE-PER Nuclear and Cytoplasmic Extraction (Pierce Biotechnology, Inc., Rockford, Ill.).
SDS-PAGE and Western blots. Cell lysates (20 μg protein) were denatured in sample buffer (2.5% SDS, 10% glycerol, 5% β-mercapto-ethanol, 0.15 M Tris (pH=6.8) and 0.01% bromophenol blue) and subjected to 12% SDS-PAGE as previously described (Kamsteeg et al, 2003). […]
In general terms: In western blotting, separated proteins are transferred to a membrane and probed.

Assay [9] has as its system caspases-3/7, -8, and -9. Nature of the assay: Caspase-3/7, -8, and -9 activity assay (Caspase-Glo) on cell lysates. To be noted: EOC cells, 24 h; increasing concentrations of Compound 1 or 2 μM Paclitaxel. The source says:
Protein preparation and cellular fractionation. After drug treatment, protein was extracted and measured as previously described (Alvero et al, 2006). For separation of the cytoplasmic and mitochondrial fractions, cell pellets were processed using the ApoAlert™ Cell Fractionation Kit (BD Biosciences, San Jose, Calif.) according to the manufacturer's instructions. For separation of the cytoplasmic and nuclear fractions, pellets were processed using NE-PER Nuclear and Cytoplasmic Extraction (Pierce Biotechnology, Inc., Rockford, Ill.). Caspase-3/7, -8, and -9 activity assay. Ten μg of protein in a 50 μl total volume was mixed with 50 μl of equilibrated Caspase-Glo^10 3/7, 8, or 9 reagents (Promega). After incubating at room temperature for 1 h, luminescence was measured using TD 20/20 Luminometer (Turner Designs, Sunnyvale, Calif.). Blank values were subtracted and fold-increase in activity was determined in relation to the control non-treatment.

The mark [10] stands for this setting: MIAPaCa-2, dose-escalating, 48 hr exposure.

Each structure is given as a SMILES string.

For the compound `COc1ccc(C2c3ccc(O)cc3OCC2c2ccc(O)cc2)cc1` (centres unmarked) [Compound 10, 3-(4-hydroxyphenyl)-4-(4-methoxyphenyl)chroman-7-ol], the “time of entering G2/M arrest post treatment” value in assay [1] lay within 24 to 48 h. Further, in [2], the G2/M arrest entry is “less pronounced”. In assay [3], the “time of G2/M arrest post treatment” value lay within 4 to 24 h and the “time remained in G2/M arrest” value is listed as “at least 48 hrs”. For the same compound, the “effect of zVAD-fmk pre-treatment on induced necrosis” value in assay [4] (MIAPaCa-2, 10 μM zVAD-fmk 1 h before 10 μM Compound 10) was “inhibited”. Besides, the “effect of zVAD-fmk pre-treatment on induced apoptosis” value in [4] (MIAPaCa-2, 10 μM zVAD-fmk 1 h pre-treatment, 10 μM Compound 10 or 50 ng/mL TRAIL) is listed as “apparently enhanced”. Besides, in [4] (setting [10]), the apoptosis entry is reported as “induced apoptosis in a dose-dependent fashion” and the necrosis result is “Very little necrosis”. Also, the mitochondrial depolarization entry in assay [5] is recorded as “depolarized”.

For the compound `COc1ccc(C2c3ccc(O)c(C)c3OCC2c2ccc(O)cc2)cc1` (centres unmarked) [Compound 1, 3-(4-hydroxyphenyl)-4-(4-methoxyphenyl)-8-methylchroman-7-ol], the “cells staining positively for both Hoechst and PI (fragmented DNA)” value in [6] was found to be 95%. In addition, the “cells having depolarized mitochondria” value in assay [7] (1 h) was determined as 30%; in assay [7] (4 h), 50%. Also, in [8], the p-S6k level entry is given as “down-regulated”. Also, in assay [9], the “caspase-3/7, -8, and -9 activities” value is “no changes”.
